Data published in PubChem BioAssay AID2060623 (Molecular Pharmacology Branch, DTP, NCI, 2025).

System: 227483-062-R1-J1-PDC complex spheroids with HUVEC/MSC, viability
Test: Anticancer human tumor 227483-062-R1-J1-PDC patient-derived pancreatic carcinoma cell line growth inhibition [CLK]
Settings: for IC50: curve of first compound; for viability, T/C: stronger effect = lower value
In short: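 Patient-derived tumor cells grown as complex spheroids with HUVEC endothelial cells and mesenchymal stem cells, treated with drug combinations. Concentrations descend in half-log steps from near clinical Cmax, or from 10 microM if Cmax unknown.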

[1] = second compound 0.0316 µM, first compound 0.00949 µM
[2] = second compound 0.0316 µM, first compound 0.03 µM
[3] = second compound 0.0316 µM, first compound 0.0949 µM
[4] = second compound 0.0316 µM, first compound 0.3 µM
[5] = second compound 0.1 µM, first compound 0.00949 µM
[6] = second compound 0.1 µM, first compound 0.03 µM
[7] = second compound 0.1 µM, first compound 0.0949 µM
[8] = second compound 0.1 µM, first compound 0.3 µM
[9] = second compound 0.316 µM, first compound 0.00949 µM
[10] = second compound 0.316 µM, first compound 0.03 µM
[11] = second compound 0.316 µM, first compound 0.0949 µM
[12] = second compound 0.316 µM, first compound 0.3 µM
[13] = second compound 1 µM, first compound 0.00949 µM
[14] = second compound 1 µM, first compound 0.03 µM
[15] = second compound 1 µM, first compound 0.0949 µM
[16] = second compound 1 µM, first compound 0.3 µM
[17] = second compound 3.16 µM, first compound 0.00949 µM
[18] = second compound 3.16 µM, first compound 0.03 µM
[19] = second compound 3.16 µM, first compound 0.0949 µM
[20] = second compound 3.16 µM, first compound 0.3 µM
[21] = second compound 10 µM, first compound 0.00949 µM
[22] = second compound 10 µM, first compound 0.03 µM
[23] = second compound 10 µM, first compound 0.0949 µM
[24] = second compound 10 µM, first compound 0.3 µM
[25] = second compound 0.0316 µM, first compound 0.0316 µM
[26] = second compound 0.0316 µM, first compound 0.1 µM
[27] = second compound 0.0316 µM, first compound 0.316 µM
[28] = second compound 0.0316 µM, first compound 1 µM
[29] = second compound 0.0316 µM, first compound 3.16 µM
[30] = second compound 0.0316 µM, first compound 10 µM
[31] = second compound 0.1 µM, first compound 0.0316 µM
[32] = second compound 0.1 µM, first compound 0.1 µM
[33] = second compound 0.1 µM, first compound 0.316 µM
[34] = second compound 0.1 µM, first compound 1 µM
[35] = second compound 0.1 µM, first compound 3.16 µM
[36] = second compound 0.1 µM, first compound 10 µM
[37] = second compound 0.316 µM, first compound 0.0316 µM
[38] = second compound 0.316 µM, first compound 0.1 µM
[39] = second compound 0.316 µM, first compound 0.316 µM
[40] = second compound 0.316 µM, first compound 1 µM
[41] = second compound 0.316 µM, first compound 3.16 µM
[42] = second compound 0.316 µM, first compound 10 µM
[43] = second compound 1 µM, first compound 0.0316 µM
[44] = second compound 1 µM, first compound 0.1 µM
[45] = second compound 1 µM, first compound 0.316 µM
[46] = second compound 1 µM, first compound 1 µM
[47] = second compound 1 µM, first compound 3.16 µM
[48] = second compound 1 µM, first compound 10 µM
[49] = second compound 3.16 µM, first compound 0.0316 µM
[50] = second compound 3.16 µM, first compound 0.1 µM
[51] = second compound 3.16 µM, first compound 0.316 µM
[52] = second compound 3.16 µM, first compound 1 µM
[53] = second compound 3.16 µM, first compound 3.16 µM
[54] = second compound 3.16 µM, first compound 10 µM
[55] = second compound 10 µM, first compound 0.0316 µM
[56] = second compound 10 µM, first compound 0.1 µM
[57] = second compound 10 µM, first compound 0.316 µM
[58] = second compound 10 µM, first compound 1 µM
[59] = second compound 10 µM, first compound 3.16 µM
[60] = second compound 10 µM, first compound 10 µM
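Also: spheroids exposed to compounds for seven days before readout.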
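For viability, T/C in this document: percent of DMSO vehicle control luminescence as 100% viability.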

## C=CC(=O)Nc1cc(Nc2nccc(-c3cn(C)c4ccccc34)n2)c(OC)cc1N(C)CCN(C)C + CNC(=O)c1ccc(Nc2nc(OC3CCCC3)c3c(-c4ccc5nc(C)oc5c4)c[nH]c3n2)c(OC)c1
Second compound 0.0316 µM
  IC50: > 0.3 µM
Second compound 0.1 µM
  IC50: > 0.3 µM
Second compound 0.316 µM
  IC50: > 0.3 µM
Second compound 1 µM
  IC50: > 0.3 µM
Second compound 3.16 µM
  IC50: < 0.000949 µM
Second compound 10 µM
  IC50: < 0.000949 µM
Second compound 0.0316 µM, first compound 0.000949 µM
  viability, T/C: 95.2%
Second compound 0.0316 µM, first compound 0.003 µM
  viability, T/C: 94.2%
[1]
  viability, T/C: 108%
[2]
  viability, T/C: 98.6%
[3]
  viability, T/C: 76.4%
[4]
  viability, T/C: 80.8%
Second compound 0.1 µM, first compound 0.000949 µM
  viability, T/C: 93.7%
Second compound 0.1 µM, first compound 0.003 µM
  viability, T/C: 103%
[5]
  viability, T/C: 85.4%
[6]
  viability, T/C: 102%
[7]
  viability, T/C: 71.9%
[8]
  viability, T/C: 69.7%
Second compound 0.316 µM, first compound 0.000949 µM
  viability, T/C: 73.1%
Second compound 0.316 µM, first compound 0.003 µM
  viability, T/C: 84.8%
[9]
  viability, T/C: 89.9%
[10]
  viability, T/C: 63.8%
[11]
  viability, T/C: 83.7%
[12]
  viability, T/C: 60.3%
Second compound 1 µM, first compound 0.000949 µM
  viability, T/C: 58.6%
Second compound 1 µM, first compound 0.003 µM
  viability, T/C: 50.4%
[13]
  viability, T/C: 69.6%
[14]
  viability, T/C: 66.1%
[15]
  viability, T/C: 56.2%
[16]
  viability, T/C: 49.6%
Second compound 3.16 µM, first compound 0.000949 µM
  viability, T/C: 45.4%
Second compound 3.16 µM, first compound 0.003 µM
  viability, T/C: 47.5%
[17]
  viability, T/C: 52.5%
[18]
  viability, T/C: 42.2%
[19]
  viability, T/C: 51.1%
[20]
  viability, T/C: 52.2%
Second compound 10 µM, first compound 0.000949 µM
  viability, T/C: 42.5%
Second compound 10 µM, first compound 0.003 µM
  viability, T/C: 41.9%
[21]
  viability, T/C: 38.4%
[22]
  viability, T/C: 40.9%
[23]
  viability, T/C: 51.4%
[24]
  viability, T/C: 32.9%

## CC1(C)CCC(CN2CCN(c3ccc(C(=O)NS(=O)(=O)c4ccc(NCC5CCOCC5)c([N+](=O)[O-])c4)c(Oc4cnc5[nH]ccc5c4)c3)CC2)=C(c2ccc(Cl)cc2)C1 + CNC(=O)c1ccc(Nc2nc(OC3CCCC3)c3c(-c4ccc5nc(C)oc5c4)c[nH]c3n2)c(OC)c1
Second compound 0.0316 µM
  IC50: 5.96 µM
Second compound 0.1 µM
  IC50: 5.53 µM
Second compound 0.316 µM
  IC50: 5.27 µM
Second compound 1 µM
  IC50: 4.51 µM
Second compound 3.16 µM
  IC50: 3.45 µM
Second compound 10 µM
  IC50: < 0.0316 µM
[25]
  viability, T/C: 96.7%
[26]
  viability, T/C: 101%
[27]
  viability, T/C: 100%
[28]
  viability, T/C: 121%
[29]
  viability, T/C: 101%
[30]
  viability, T/C: 8.36%
[31]
  viability, T/C: 90.2%
[32]
  viability, T/C: 93.6%
[33]
  viability, T/C: 87.7%
[34]
  viability, T/C: 85.9%
[35]
  viability, T/C: 87.8%
[36]
  viability, T/C: 9.86%
[37]
  viability, T/C: 100%
[38]
  viability, T/C: 91.2%
[39]
  viability, T/C: 78.7%
[40]
  viability, T/C: 88.5%
[41]
  viability, T/C: 84.6%
[42]
  viability, T/C: 6.46%
[43]
  viability, T/C: 70.6%
[44]
  viability, T/C: 67.2%
[45]
  viability, T/C: 73.1%
[46]
  viability, T/C: 85.3%
[47]
  viability, T/C: 67.2%
[48]
  viability, T/C: 9.18%
[49]
  viability, T/C: 50.3%
[50]
  viability, T/C: 63.3%
[51]
  viability, T/C: 55.3%
[52]
  viability, T/C: 57.6%
[53]
  viability, T/C: 53.3%
[54]
  viability, T/C: 7.8%
[55]
  viability, T/C: 48%
[56]
  viability, T/C: 45%
[57]
  viability, T/C: 51.7%
[58]
  viability, T/C: 46.3%
[59]
  viability, T/C: 44.1%
[60]
  viability, T/C: 9.45%

## NC(=O)C(=Cn1cnc(-c2cc(C(F)(F)F)cc(C(F)(F)F)c2)n1)c1cncnc1 + CNC(=O)c1ccc(Nc2nc(OC3CCCC3)c3c(-c4ccc5nc(C)oc5c4)c[nH]c3n2)c(OC)c1
Second compound 0.0316 µM
  IC50: 0.379 µM
Second compound 0.1 µM
  IC50: 0.332 µM
Second compound 0.316 µM
  IC50: 0.192 µM
Second compound 1 µM
  IC50: 0.0318 µM
Second compound 3.16 µM
  IC50: < 0.00949 µM
Second compound 10 µM
  IC50: < 0.00949 µM
[1]
  viability, T/C: 73.6%
[2]
  viability, T/C: 81.8%
[3]
  viability, T/C: 73.2%
[4]
  viability, T/C: 53.4%
Second compound 0.0316 µM, first compound 0.949 µM
  viability, T/C: 29.8%
Second compound 0.0316 µM, first compound 3 µM
  viability, T/C: 9.82%
[5]
  viability, T/C: 86.3%
[6]
  viability, T/C: 77.2%
[7]
  viability, T/C: 62.4%
[8]
  viability, T/C: 60.7%
Second compound 0.1 µM, first compound 0.949 µM
  viability, T/C: 24.6%
Second compound 0.1 µM, first compound 3 µM
  viability, T/C: 5.03%
[9]
  viability, T/C: 61.4%
[10]
  viability, T/C: 80.7%
[11]
  viability, T/C: 61.2%
[12]
  viability, T/C: 41%
Second compound 0.316 µM, first compound 0.949 µM
  viability, T/C: 14.7%
Second compound 0.316 µM, first compound 3 µM
  viability, T/C: 2.56%
[13]
  viability, T/C: 46.4%
[14]
  viability, T/C: 56.3%
[15]
  viability, T/C: 43.4%
[16]
  viability, T/C: 25.6%
Second compound 1 µM, first compound 0.949 µM
  viability, T/C: 6.77%
Second compound 1 µM, first compound 3 µM
  viability, T/C: 2%
[17]
  viability, T/C: 43%
[18]
  viability, T/C: 35.8%
[19]
  viability, T/C: 26.9%
[20]
  viability, T/C: 11.7%
Second compound 3.16 µM, first compound 0.949 µM
  viability, T/C: 2.83%
Second compound 3.16 µM, first compound 3 µM
  viability, T/C: 2.08%
[21]
  viability, T/C: 40.6%
[22]
  viability, T/C: 37.3%
[23]
  viability, T/C: 22%
[24]
  viability, T/C: 7.23%
Second compound 10 µM, first compound 0.949 µM
  viability, T/C: 2.36%
Second compound 10 µM, first compound 3 µM
  viability, T/C: 1.41%

## Nc1ccccc1NC(=O)c1ccc(CNC(=O)OCc2cccnc2)cc1 + CNC(=O)c1ccc(Nc2nc(OC3CCCC3)c3c(-c4ccc5nc(C)oc5c4)c[nH]c3n2)c(OC)c1
Second compound 0.0316 µM
  IC50: > 10 µM
Second compound 0.1 µM
  IC50: 8.51 µM
Second compound 0.316 µM
  IC50: 5.13 µM
Second compound 1 µM
  IC50: 0.531 µM
Second compound 3.16 µM
  IC50: < 0.0316 µM
Second compound 10 µM
  IC50: < 0.0316 µM
[25]
  viability, T/C: 90.9%
[26]
  viability, T/C: 88.5%
[27]
  viability, T/C: 109%
[28]
  viability, T/C: 111%
[29]
  viability, T/C: 118%
[30]
  viability, T/C: 75.8%
[31]
  viability, T/C: 73.3%
[32]
  viability, T/C: 88.6%
[33]
  viability, T/C: 94.6%
[34]
  viability, T/C: 107%
[35]
  viability, T/C: 96.5%
[36]
  viability, T/C: 43%
[37]
  viability, T/C: 82.1%
[38]
  viability, T/C: 72.9%
[39]
  viability, T/C: 78.7%
[40]
  viability, T/C: 78.3%
[41]
  viability, T/C: 65.8%
[42]
  viability, T/C: 28%
[43]
  viability, T/C: 53.6%
[44]
  viability, T/C: 45.7%
[45]
  viability, T/C: 53.4%
[46]
  viability, T/C: 50.1%
[47]
  viability, T/C: 40.6%
[48]
  viability, T/C: 14.5%
[49]
  viability, T/C: 37.4%
[50]
  viability, T/C: 44.2%
[51]
  viability, T/C: 39.7%
[52]
  viability, T/C: 30.1%
[53]
  viability, T/C: 17.3%
[54]
  viability, T/C: 7.51%
[55]
  viability, T/C: 33%
[56]
  viability, T/C: 30.8%
[57]
  viability, T/C: 32.2%
[58]
  viability, T/C: 19.4%
[59]
  viability, T/C: 16.6%
[60]
  viability, T/C: 5.89%
